Measured values reported in US7592503B2, “Mammalian telophase oocyte enucleation” (Trustees of Tufts College, priority 1998, dated 2009).

Experiments:
[1] = system: mouse metaphase II oocytes; assay: Treatment-induced nuclear chromatin enucleation of activated oocytes (H33342 staining, fluorescence microscopy); type: cell-based; conditions: for rate of treatment-induced chromatin enucleation: ethanol- or ionomycin-activated B6D2 oocytes, Taxol 5 μg/ml, Cycloheximide 10 μg/ml, Demecolcine 0.4 μg/ml in PBS+10% FBS, 0.5-1.5 h post activation; for rate of treatment-induced chromatin enucleation (range in parentheses): same treatments, range printed in parentheses
Text: Advances in somatic cell nuclear transfer (NT) methodology have seen the procession of cloned sheep, cows, mice and goats. Despite the clear potential use of this technology for genetic manipulations, the success rates remain woefully low. The limitations associated with nuclear transfer include the selection and preparation of competent donor cytoplasts. The cytoplasm plays a vital role in genome reprogramming and reactivation and therefore manipulations that compromise oocyte developmental competence are detrimental to the success of nuclear transfer. The present study was directed towards determining alternative methods to more efficiently prepare competent cytoplasts for nuclear transfer procedures. In experiment 1, in vivo-produced mouse metaphase II oocytes (B6D2, aguti, recovered at 16-20 h post hCG) were activated by exposure to either 7% ethanol or 2 μm ionomycin in PBS+10% FBS (5 min.). At the onset of initial second polar body formation (10-15 min. post activation) and extrusion (anaphase/telophase stage), oocytes were randomly allocated to control (cultured 0.5-1.5 h) or incubated with Taxol® (5 μg/ml), Cycloheximide (10 μg/ml) or in Demecolcine (0.4 μg/ml) in PBS+10% FBS until the second polar body was extruded (0.5-1.5 h post activation) to induce nuclear chromatin enucleation. Oocytes were stained (H33342, 5 μg/ml) to confirm the extent of nuclear chromatin enucleation using fluorescence microscopy. […] In experiment 2, Demecolcine-induced enucleated cytoplasts were used for nuclear transfer recipients. Donor nuclei were prepared from cumulus cells (Black Swiss) by partial lysis (1% sodium citrate) followed by aspiration using the injection pipette (7 um). Donor nuclei were injected into cytoplasts pretreated with Cytochalasin-B (5 μg/ml, 15 min.). Reconstructed NT embryos were subsequently co-cultured (72-96 h) with oviductal cells in drops of M-199+10% FBS. The cleavage rate was 70% (85/121) and the rate of blastocyst formation was 42% (51/121). Pregnancies were established in 2/3 recipients (CD1, white) following uterine embryo transfer (10 embryos/recipient). A total of 14 black female pups were born (47%, 14/30), seven of which were stillborn from 1 recipient and the other seven were born live (23%, 7/30) but 3 were cannibalized within 24 h. The 4 cloned pups were normal and healthy, and their fertility is being assessed. […] Moreover, cytoplasts derived from this enucleation procedure are competent to support genome reactivation and fetal development to term. This technically simple approach may provide a more efficient method to produce large numbers of cytoplasts for cloning procedures.

[2] = system: mouse oocytes; assay: Activation of metaphase II oocytes to Telophase II stage in vitro; type: cell-based; conditions: ionomycin 4 μM, 5 min; 3 replicate experiments
Experimental: Oocytes were collected from superovulated mice by flushing oviducts to collect metaphase II stage oocytes. Oocytes were then activated by one of two methods to reach the Telophase II state in vitro: culture-induced Ca^2+ activation or ionomycin activation (4 μM, 5 min), and enucleated. Karyoplasts were prepared from cumulus cells (natural G0 stage) and nuclear transfer was conducted followed by electrical fusion with Telophase II cytoplasts.

| SMILES | rate of treatment-induced chromatin enucleation [1] | rate of treatment-induced chromatin enucleation (range in parentheses) [1] | Activation, Number (activated/treated oocytes) [2] | Activation, Percent [2] |
| --- | --- | --- | --- | --- |
| C[C@@H]1C[C@@H]([C@H](O)CC2CC(=O)NC(=O)C2)C(=O)[C@@H](C)C1 [Cycloheximide] | 16.3% | 0-24% |  |  |
| CN[C@H]1CCc2cc(OC)c(OC)c(OC)c2-c2ccc(OC)c(=O)cc21 [Demecolcine] | 54% | 27-70% |  |  |
| C[C@H](CCC(=O)O)C[C@H](C)C[C@H](C)C(=O)/C=C(\O)[C@H](C)C[C@H](C)C/C=C/[C@@H](C)[C@@H](O)[C@@H](C)[C@@H](O)C[C@@H]1CC[C@@](C)([C@H]2CC[C@@](C)([C@@H](C)O)O2)O1 [Ionomycin, ionomycin] |  |  | 46/50 | 92% |
| CC(=O)O[C@H]1C(=O)[C@@]2(C)[C@H]([C@H](OC(=O)c3ccccc3)[C@]3(O)C[C@H](OC(=O)[C@H](O)[C@@H](NC(=O)c4ccccc4)c4ccccc4)C(C)=C1C3(C)C)[C@]1(OC(C)=O)CO[C@@H]1C[C@@H]2O [Taxol®, paclitaxel] | 3.6% | 0-10% |  |  |
